Laboratory results published in patent US9695155B2, “Herbicidal substituted pyrimidinyloxy benzene compounds” (E. I. DU PONT DE NEMOURS AND COMPANY, priority 2013, dated 2017).

What was measured:
[1] = tested on: waterhemp_RES1 (ALS & Triazine resistant common waterhemp); experiment: Test E postemergence; type: in vivo, Amaranthus rudis
Summary of the method: (§1)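 Compound in a non-phytotoxic solvent mixture with surfactant was applied preemergence to seeds in silt loam soil, or postemergence to plants 2 to 18 cm tall grown in peat-based potting medium. Plants were kept in a greenhouse for 14 to 21 days, then rated visually against untreated controls on a 0 (no effect) to 100 (complete control) scale.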

[2] = tested on: waterhemp_RES2 (ALS & HPPD resistant common waterhemp); experiment: Test E postemergence; type: in vivo, Amaranthus rudis
Summary of the method: as §1

soybean [3] = experiment: Test E postemergence; type: in vivo, Glycine max
Summary of the method: as §1

dayflower [4] = experiment: Test E postemergence; type: in vivo, Commelina virginica
Summary of the method: as §1

Italian ryegrass = experiment: Test E postemergence; type: in vivo, Lolium multiflorum
Summary of the method: as §1

barnyardgrass = experiment: Test E postemergence; type: in vivo, Echinochloa crus-galli
Description: Seeds of plant species selected from corn (Zea mays), soybean (Glycine max), velvetleaf (Abutilon theophrasti), lambsquarters (Chenopodium album), wild poinsettia (Euphorbia heterophylla), palmer pigweed (Amaranthus palmeri), waterhemp (common waterhemp, Amaranthus rudis), surinam grass (Brachiaria decumbens), large (Lg) crabgrass (Digitaria sanguinalis), Brazilian crabgrass (Digitaria horizontalis), fall panicum (Panicum dichotomiflorum), giant foxtail (Setaria faberii), green foxtail (Setaria viridis), goosegrass (Eleusine indica), johnsongrass (Sorghum halepense), ragweed (common ragweed, Ambrosia elatior), barnyardgrass (Echinochloa crus-galli), sandbur (southern sandbur, Cenchrus echinatus), arrowleaf sida (Sida rhombifolia), Italian ryegrass (Lolium multiflorum), dayflower (Virginia (VA) dayflower, Commelina virginica), field bindweed (Convolvulus arvensis), morningglory (Ipomoea coccinea), nightshade (eastern black nightshade, Solanum ptycanthum), kochia (Kochia scoparia), yellow nutsedge (Cyperus esculentus), cocklebur (common cocklebur, Xanthium strumarium), smartweed (ladysthumb smartweed, and hairy beggarticks (Bidens pilosa), were planted into a silt loam soil and treated preemergence with test chemicals formulated in a non-phytotoxic solvent mixture which included a surfactant.
At the same time, plants from these crop and weed species and also horseweed (Canada horseweed, Conyza canadensis), waterhemp_RES1, (ALS & Triazine resistant common waterhemp, Amaranthus rudis), and waterhemp_RES2, (ALS & HPPD resistant common waterhemp, Amaranthus rudis) were planted in pots containing Redi-Earth® planting medium (Scotts Company, 14111 Scottslawn Road, Marysville, Ohio 43041) comprising spaghnum peat moss, vermiculite, wetting agent and starter nutrients were treated with postemergence applications of test chemicals formulated in the same manner. Plants ranged in height from 2 to 18 cm for postemergence treatments (1- to 4-leaf stage). Treated plants and controls were maintained in a greenhouse for 14 to 21 days, after which time all species were compared to controls and visually evaluated. Plant response ratings, summarized in Table E, are based on a scale of 0 to 100 where 0 is no effect and 100 is complete control. A dash (-) response means no test result.

dayflower [5] = experiment: Test E preemergence; type: in vivo, Commelina virginica; conditions: for Dayflower, VA plant response rating: scale 0 to 100 (0 no effect, 100 complete control); for Plant response rating, Dayflower, VA: scale 0 to 100, 0 no effect, 100 complete control
Summary of the method: as §1

yellow nutsedge = experiment: Test E preemergence; type: in vivo, Cyperus esculentus; conditions: for Nutsedge, Yellow plant response rating: scale 0 to 100 (0 no effect, 100 complete control); for Plant response rating, Nutsedge, Yellow: scale 0 to 100, 0 no effect, 100 complete control
Summary of the method: as §1

velvetleaf = experiment: Test E preemergence; type: in vivo, Abutilon theophrasti; conditions: for Velvetleaf plant response rating: scale 0 to 100 (0 no effect, 100 complete control); for Plant response rating, Velvetleaf: scale 0 to 100, 0 no effect, 100 complete control
Summary of the method: as §1

soybean [6] = experiment: Test E preemergence; type: in vivo, Glycine max; conditions: for Soybean plant response rating: scale 0 to 100 (0 no effect, 100 complete control); for Plant response rating, Soybean: scale 0 to 100, 0 no effect, 100 complete control
Summary of the method: as §1

fall panicum = experiment: Test E preemergence; type: in vivo, Panicum dichotomiflorum; conditions: for Panicum, Fall plant response rating: scale 0 to 100 (0 no effect, 100 complete control); for Plant response rating, Panicum, Fall: scale 0 to 100, 0 no effect, 100 complete control
Summary of the method: as §1

johnsongrass = experiment: Test E preemergence; type: in vivo, Sorghum halepense; conditions: for Johnsongrass plant response rating: scale 0 to 100 (0 no effect, 100 complete control); for Plant response rating, Johnsongrass: scale 0 to 100, 0 no effect, 100 complete control
Summary of the method: as §1

field bindweed = experiment: Test E preemergence; type: in vivo, Convolvulus arvensis; conditions: for Field Bindweed plant response rating: scale 0 to 100 (0 no effect, 100 complete control); for Plant response rating, Field Bindweed: scale 0 to 100, 0 no effect, 100 complete control
Summary of the method: as §1

ragweed = experiment: Test E preemergence; type: in vivo, Ambrosia elatior; conditions: for Ragweed plant response rating: scale 0 to 100 (0 no effect, 100 complete control); for Plant response rating, Ragweed: scale 0 to 100, 0 no effect, 100 complete control
Summary of the method: as §1

corn = experiment: Test E preemergence; type: in vivo, Zea mays; conditions: for Corn plant response rating: scale 0 to 100 (0 no effect, 100 complete control); for Plant response rating, Corn: scale 0 to 100, 0 no effect, 100 complete control
Summary of the method: as §1

[7] = Postemergence, 31 g ai/ha, scale 0 to 100
[8] = Postemergence, 62 g ai/ha, scale 0 to 100
[9] = Postemergence, 125 g ai/ha, scale 0 to 100
[10] = postemergence, 16 g ai/ha, scale 0 to 100, 0 no effect, 100 complete control

Clc1cnc(Oc2cccc(Cl)c2-n2cc(I)cn2)nc1 [Compound 181]
Plant response rating, Waterhemp_RES1 [1, 7]: 95
Plant response rating, Waterhemp_RES1 [1, 8]: 90
Plant response rating, Waterhemp_RES1 [1, 9]: 95
Plant response rating, Waterhemp_RES1 [1, 10]: 90
Plant response rating, Waterhemp_RES2 [2, 7]: 95
Plant response rating, Waterhemp_RES2 [2, 8]: 98
Plant response rating, Waterhemp_RES2 [2, 9]: 100
Plant response rating, Waterhemp_RES2 [2, 10]: 85
Plant response rating, Soybean (soybean [3]; [7]): 80
Plant response rating, Soybean (soybean [3]; [8]): 90
Plant response rating, Soybean (soybean [3]; [9]): 95
Plant response rating, Soybean (soybean [3]; [10]): 50
Plant response rating, Dayflower, VA (dayflower [4]; [7]): 30
Plant response rating, Dayflower, VA (dayflower [4]; [8]): 40
Plant response rating, Dayflower, VA (dayflower [4]; [9]): 60
Plant response rating, Dayflower, VA (dayflower [4]; [10]): 20
Plant response rating, Ryegrass, Italian (Italian ryegrass; [7]): 5
Plant response rating, Ryegrass, Italian (Italian ryegrass; [8]): 10
Plant response rating, Ryegrass, Italian (Italian ryegrass; [9]): 20
Plant response rating, Ryegrass, Italian (Italian ryegrass; [10]): 5
Plant response rating, Barnyardgrass (barnyardgrass; [7]): 20
Plant response rating, Barnyardgrass (barnyardgrass; [8]): 15
Plant response rating, Barnyardgrass (barnyardgrass; [9]): 25
Plant response rating, Barnyardgrass (barnyardgrass; [10]): 10

N#Cc1cccc(Oc2ncc(Cl)cn2)c1-n1cc(Br)cn1 [Compound 52, 2-(4-bromo-1H-pyrazol-1-yl)-3-[(5-chloro-2-pyrimidinyl)oxy]benzonitrile]
Dayflower, VA plant response rating (dayflower [5]; 16 g ai/ha): 0
Dayflower, VA plant response rating (dayflower [5]; 31 g ai/ha): 0
Dayflower, VA plant response rating (dayflower [5]; 62 g ai/ha): 5
Plant response rating, Dayflower, VA (dayflower [5]; 125 g ai/ha): 70
Plant response rating, Dayflower, VA (dayflower [5]; 250 g ai/ha): 98
pest or weed control at 31 g/ha ([2]; Amaranthus tuberculatus, post-emergence, Postemergence, 31 g ai/ha, scale 0 to 100, read-out: Plant response rating, Waterhemp_RES2): 90%
pest or weed control at 62 g/ha ([2]; Amaranthus tuberculatus, post-emergence, Postemergence, 62 g ai/ha, scale 0 to 100, read-out: Plant response rating, Waterhemp_RES2): 95%
pest or weed control at 125 g/ha ([2]; Amaranthus tuberculatus, post-emergence, Postemergence, 125 g ai/ha, scale 0 to 100, read-out: Plant response rating, Waterhemp_RES2): 90%
pest or weed control at 16 g/ha ([2]; Amaranthus tuberculatus, post-emergence, postemergence, 16 g ai/ha, scale 0 to 100, 0 no effect, 100 complete control, read-out: Plant response rating, Waterhemp_RES2): 80%
plant response (crop injury) rating, soybean, 0-100 scale at 31 g/ha (soybean [3]; Glycine max, post-emergence, Postemergence, 31 g ai/ha, scale 0 to 100): 75%
plant response (crop injury) rating, soybean, 0-100 scale at 62 g/ha (soybean [3]; Glycine max, post-emergence, Postemergence, 62 g ai/ha, scale 0 to 100): 90%
plant response (crop injury) rating, soybean, 0-100 scale at 125 g/ha (soybean [3]; Glycine max, post-emergence, Postemergence, 125 g ai/ha, scale 0 to 100): 95%
plant response (crop injury) rating, soybean, 0-100 scale at 16 g/ha (soybean [3]; Glycine max, post-emergence, postemergence, 16 g ai/ha, scale 0 to 100, 0 no effect, 100 complete control): 70%
Nutsedge, Yellow plant response rating (yellow nutsedge; 16 g ai/ha): 0
Nutsedge, Yellow plant response rating (yellow nutsedge; 31 g ai/ha): 0
Nutsedge, Yellow plant response rating (yellow nutsedge; 62 g ai/ha): 0
Plant response rating, Nutsedge, Yellow (yellow nutsedge; 125 g ai/ha): 25
Plant response rating, Nutsedge, Yellow (yellow nutsedge; 250 g ai/ha): 50
Velvetleaf plant response rating (velvetleaf; 16 g ai/ha): 0
Velvetleaf plant response rating (velvetleaf; 31 g ai/ha): 0
Velvetleaf plant response rating (velvetleaf; 62 g ai/ha): 75
Plant response rating, Velvetleaf (velvetleaf; 125 g ai/ha): 85
Plant response rating, Velvetleaf (velvetleaf; 250 g ai/ha): 90
Soybean plant response rating (soybean [6]; 16 g ai/ha): 0
Soybean plant response rating (soybean [6]; 31 g ai/ha): 0
Soybean plant response rating (soybean [6]; 62 g ai/ha): 0
Plant response rating, Soybean (soybean [6]; 125 g ai/ha): 60
Plant response rating, Soybean (soybean [6]; 250 g ai/ha): 90
Panicum, Fall plant response rating (fall panicum; 16 g ai/ha): 0
Panicum, Fall plant response rating (fall panicum; 31 g ai/ha): 0
Panicum, Fall plant response rating (fall panicum; 62 g ai/ha): 100
Plant response rating, Panicum, Fall (fall panicum; 125 g ai/ha): 100
Plant response rating, Panicum, Fall (fall panicum; 250 g ai/ha): 100
Johnsongrass plant response rating (johnsongrass; 16 g ai/ha): 0
Johnsongrass plant response rating (johnsongrass; 31 g ai/ha): 0
Johnsongrass plant response rating (johnsongrass; 62 g ai/ha): 30
Plant response rating, Johnsongrass (johnsongrass; 125 g ai/ha): 70
Plant response rating, Johnsongrass (johnsongrass; 250 g ai/ha): 98
Field Bindweed plant response rating (field bindweed; 16 g ai/ha): 0
Field Bindweed plant response rating (field bindweed; 31 g ai/ha): 0
Field Bindweed plant response rating (field bindweed; 62 g ai/ha): 25
Plant response rating, Field Bindweed (field bindweed; 125 g ai/ha): 80
Plant response rating, Field Bindweed (field bindweed; 250 g ai/ha): 95
pest or weed control at 31 g/ha (dayflower [4]; Commelina virginica, post-emergence, Postemergence, 31 g ai/ha, scale 0 to 100, read-out: Plant response rating, Dayflower, VA): 40%
pest or weed control at 62 g/ha (dayflower [4]; Commelina virginica, post-emergence, Postemergence, 62 g ai/ha, scale 0 to 100, read-out: Plant response rating, Dayflower, VA): 50%
pest or weed control at 125 g/ha (dayflower [4]; Commelina virginica, post-emergence, Postemergence, 125 g ai/ha, scale 0 to 100, read-out: Plant response rating, Dayflower, VA): 60%
pest or weed control at 16 g/ha (dayflower [4]; Commelina virginica, post-emergence, postemergence, 16 g ai/ha, scale 0 to 100, 0 no effect, 100 complete control, read-out: Plant response rating, Dayflower, VA): 30%
Ragweed plant response rating (ragweed; 16 g ai/ha): 0
Ragweed plant response rating (ragweed; 31 g ai/ha): 0
Ragweed plant response rating (ragweed; 62 g ai/ha): 0
Plant response rating, Ragweed (ragweed; 125 g ai/ha): 5
Plant response rating, Ragweed (ragweed; 250 g ai/ha): 70
pest or weed control at 31 g/ha (Italian ryegrass; Lolium multiflorum, post-emergence, Postemergence, 31 g ai/ha, scale 0 to 100, read-out: Plant response rating, Ryegrass, Italian): 0%
pest or weed control at 62 g/ha (Italian ryegrass; Lolium multiflorum, post-emergence, Postemergence, 62 g ai/ha, scale 0 to 100, read-out: Plant response rating, Ryegrass, Italian): 0%
pest or weed control at 125 g/ha (Italian ryegrass; Lolium multiflorum, post-emergence, Postemergence, 125 g ai/ha, scale 0 to 100, read-out: Plant response rating, Ryegrass, Italian): 10%
pest or weed control at 16 g/ha (Italian ryegrass; Lolium multiflorum, post-emergence, postemergence, 16 g ai/ha, scale 0 to 100, 0 no effect, 100 complete control, read-out: Plant response rating, Ryegrass, Italian): 0%
pest or weed control at 31 g/ha (barnyardgrass; Echinochloa crus-galli, post-emergence, Postemergence, 31 g ai/ha, scale 0 to 100, read-out: Plant response rating, Barnyardgrass): 10%
pest or weed control at 62 g/ha (barnyardgrass; Echinochloa crus-galli, post-emergence, Postemergence, 62 g ai/ha, scale 0 to 100, read-out: Plant response rating, Barnyardgrass): 20%
pest or weed control at 125 g/ha (barnyardgrass; Echinochloa crus-galli, post-emergence, Postemergence, 125 g ai/ha, scale 0 to 100, read-out: Plant response rating, Barnyardgrass): 30%
pest or weed control at 16 g/ha (barnyardgrass; Echinochloa crus-galli, post-emergence, postemergence, 16 g ai/ha, scale 0 to 100, 0 no effect, 100 complete control, read-out: Plant response rating, Barnyardgrass): 5%
Corn plant response rating (corn; 16 g ai/ha): 0
Corn plant response rating (corn; 31 g ai/ha): 0
Corn plant response rating (corn; 62 g ai/ha): 0
Plant response rating, Corn (corn; 125 g ai/ha): 0
Plant response rating, Corn (corn; 250 g ai/ha): 40
